According to patent publication US20240217977A1, “DIAZEPANONE-FUSED PYRIMIDINE COMPOUNDS, COMPOSITIONS AND MEDICINAL APPLICATIONS THEREOF” (Blueprint Medicines Corporation, priority 2021, published 2024):
pIC50: −log10 of the molar value.

What was measured:
Format in all cases: cell-based
A431 cells = experiment: Cellular proliferation (Alamar Blue) assay, A431 cells; conditions: Homo sapiens, A-431, 72 hr incubation
Procedure: (§1) Example 2: Cellular Proliferation (Alamar Blue) Assays
(§2) • 1. EGFR(D770_N771insSVD) expressing Ba/F3 stable cell line • 2. EGFR (A767_dupASV) expressing Ba/F3 stable cell line • 3. A431 cells • 4. EGFR (H773insNPH) expressing Ba/F3 stable cell line • 5. HER2 (A775_G775insYVMA) expressing Ba/F3 stable cell line
(§3) • 1. Seed cells at 5000 for A431 and 15,000 cells for Ba/F3 in 100 μL/well in complete media (for A431: DMEM with 10% FBS and for Ba/F3 cells: RPMI with 10% FBS) in • 96-well tissue culture plate. Leave outer wells without cells for background measurements. Incubate at 37 degree Celsius in 5% C02 humidified incubator for 16-18 hours. • 2. Add 0.025 ml of 5× concentration compound dilution or DMSO control. Final compound concentration range is 10-0.0005 μM prepared in 3-fold serial dilutions. Incubate for 72 hr at 37 degree Celsius in 5% CO2 humidified incubator. • 3. Add 0.0125 ml Alamar Blue™ reagent to each well with multi-channel pipette and tap gently on each side of the plate to mix. Incubate for 3 hours at 37 degree Celsius in 5% CO2 humidified incubator. • 4. Read plates on fluorescence reader (Tecan Spark Control, Device: Spark, Serial #: 1801006040) at 540 nm excitation, 590 nm emission wavelength. • 5. Data analysis was performed using XLfit 5.5.0.5.

[1] = molecular target: EGFR(D770_N771insSVD) expressing Ba/F3 stable cell line (Homo sapiens, UniProt P00533, DUP768-770, cells depend on it); experiment: Cellular proliferation (Alamar Blue) assay, EGFR(D770_N771insSVD) Ba/F3; conditions: 72 hr incubation, read-out: D770 IC50
Procedure: as §1, §2, §3

[2] = molecular target: EGFR (A767_dupASV) expressing Ba/F3 stable cell line (Homo sapiens, UniProt P00533, DUP767-769, cells depend on it); experiment: Cellular proliferation (Alamar Blue) assay, EGFR (A767_dupASV) Ba/F3; conditions: 72 hr incubation, read-out: A767 IC50
Procedure: as §1, §2, §3

[3] = molecular target: HER2 (A775_G775insYVMA) expressing Ba/F3 stable cell line (Homo sapiens, UniProt P04626, DUP772-775, cells depend on it); experiment: Cellular proliferation (Alamar Blue) assay, HER2 (A775_G775insYVMA) Ba/F3; conditions: 72 hr incubation, read-out: YVMA IC50
Procedure: as §1, §2, §3

Sequence of EGFR(D770_N771insSVD) expressing Ba/F3 stable cell line (P00533 with tags, fused parts or gaps DUP768-770): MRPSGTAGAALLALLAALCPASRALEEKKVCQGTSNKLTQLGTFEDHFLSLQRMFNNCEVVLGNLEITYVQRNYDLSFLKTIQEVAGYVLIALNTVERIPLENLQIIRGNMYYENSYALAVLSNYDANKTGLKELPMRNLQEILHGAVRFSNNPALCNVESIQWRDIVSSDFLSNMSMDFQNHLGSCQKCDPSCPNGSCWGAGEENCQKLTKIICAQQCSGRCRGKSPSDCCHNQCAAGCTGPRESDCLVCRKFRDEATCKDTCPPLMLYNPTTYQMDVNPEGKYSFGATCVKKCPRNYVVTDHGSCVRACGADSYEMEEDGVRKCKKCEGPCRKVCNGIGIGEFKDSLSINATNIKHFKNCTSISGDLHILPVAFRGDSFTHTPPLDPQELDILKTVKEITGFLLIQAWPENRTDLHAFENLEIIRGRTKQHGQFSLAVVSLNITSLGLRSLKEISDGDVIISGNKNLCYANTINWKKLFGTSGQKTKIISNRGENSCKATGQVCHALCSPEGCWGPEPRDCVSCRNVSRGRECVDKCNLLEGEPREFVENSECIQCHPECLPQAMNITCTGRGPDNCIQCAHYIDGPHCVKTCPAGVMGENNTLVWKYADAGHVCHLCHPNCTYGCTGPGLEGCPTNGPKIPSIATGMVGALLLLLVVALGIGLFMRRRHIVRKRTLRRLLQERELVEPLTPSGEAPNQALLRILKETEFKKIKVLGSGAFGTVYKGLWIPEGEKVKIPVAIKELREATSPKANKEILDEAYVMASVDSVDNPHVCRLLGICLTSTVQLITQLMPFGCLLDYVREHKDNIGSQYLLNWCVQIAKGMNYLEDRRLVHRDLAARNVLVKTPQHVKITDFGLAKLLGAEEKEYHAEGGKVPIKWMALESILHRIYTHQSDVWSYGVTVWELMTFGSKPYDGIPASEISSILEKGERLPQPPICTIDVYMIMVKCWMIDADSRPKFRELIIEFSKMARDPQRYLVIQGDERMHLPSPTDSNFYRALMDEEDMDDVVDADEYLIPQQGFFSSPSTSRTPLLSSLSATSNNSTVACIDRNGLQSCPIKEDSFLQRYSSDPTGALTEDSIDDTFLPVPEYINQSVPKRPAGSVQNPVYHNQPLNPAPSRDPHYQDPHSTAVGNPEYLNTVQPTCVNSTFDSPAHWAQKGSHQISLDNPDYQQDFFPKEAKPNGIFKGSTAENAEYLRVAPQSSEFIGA
Sequence of HER2 (A775_G775insYVMA) expressing Ba/F3 stable cell line (P04626 with tags, fused parts or gaps DUP772-775): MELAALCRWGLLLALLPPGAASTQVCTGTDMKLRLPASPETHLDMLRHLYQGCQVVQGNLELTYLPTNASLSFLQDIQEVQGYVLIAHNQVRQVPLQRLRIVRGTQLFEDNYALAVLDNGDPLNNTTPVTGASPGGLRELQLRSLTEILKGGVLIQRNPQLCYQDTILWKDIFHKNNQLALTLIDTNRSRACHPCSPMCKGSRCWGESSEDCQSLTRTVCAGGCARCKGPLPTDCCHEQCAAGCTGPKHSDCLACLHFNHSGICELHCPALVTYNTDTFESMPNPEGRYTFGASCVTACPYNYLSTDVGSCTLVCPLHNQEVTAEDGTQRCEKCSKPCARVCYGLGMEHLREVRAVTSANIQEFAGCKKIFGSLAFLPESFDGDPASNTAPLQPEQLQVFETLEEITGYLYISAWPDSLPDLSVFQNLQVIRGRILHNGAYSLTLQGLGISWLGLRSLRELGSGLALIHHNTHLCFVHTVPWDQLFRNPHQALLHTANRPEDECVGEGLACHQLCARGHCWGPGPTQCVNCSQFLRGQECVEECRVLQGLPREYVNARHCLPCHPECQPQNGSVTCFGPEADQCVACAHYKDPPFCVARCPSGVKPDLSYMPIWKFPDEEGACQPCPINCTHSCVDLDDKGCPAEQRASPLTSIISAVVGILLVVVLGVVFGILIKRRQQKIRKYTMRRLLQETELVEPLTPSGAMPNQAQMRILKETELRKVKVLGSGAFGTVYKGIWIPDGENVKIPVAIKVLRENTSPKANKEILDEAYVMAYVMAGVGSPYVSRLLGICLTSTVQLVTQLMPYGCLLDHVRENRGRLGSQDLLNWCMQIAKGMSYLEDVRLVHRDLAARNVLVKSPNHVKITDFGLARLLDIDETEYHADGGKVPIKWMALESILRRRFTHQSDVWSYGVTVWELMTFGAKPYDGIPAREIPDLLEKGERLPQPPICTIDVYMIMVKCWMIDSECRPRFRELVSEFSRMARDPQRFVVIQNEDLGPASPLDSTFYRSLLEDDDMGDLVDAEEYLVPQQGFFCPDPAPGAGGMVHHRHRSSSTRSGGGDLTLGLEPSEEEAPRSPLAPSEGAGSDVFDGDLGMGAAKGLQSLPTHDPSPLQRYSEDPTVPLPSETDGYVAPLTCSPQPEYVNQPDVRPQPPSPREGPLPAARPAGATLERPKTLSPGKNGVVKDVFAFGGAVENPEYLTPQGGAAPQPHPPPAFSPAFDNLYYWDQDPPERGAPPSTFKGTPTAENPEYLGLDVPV
Sequence of EGFR (A767_dupASV) expressing Ba/F3 stable cell line (P00533 with tags, fused parts or gaps DUP767-769): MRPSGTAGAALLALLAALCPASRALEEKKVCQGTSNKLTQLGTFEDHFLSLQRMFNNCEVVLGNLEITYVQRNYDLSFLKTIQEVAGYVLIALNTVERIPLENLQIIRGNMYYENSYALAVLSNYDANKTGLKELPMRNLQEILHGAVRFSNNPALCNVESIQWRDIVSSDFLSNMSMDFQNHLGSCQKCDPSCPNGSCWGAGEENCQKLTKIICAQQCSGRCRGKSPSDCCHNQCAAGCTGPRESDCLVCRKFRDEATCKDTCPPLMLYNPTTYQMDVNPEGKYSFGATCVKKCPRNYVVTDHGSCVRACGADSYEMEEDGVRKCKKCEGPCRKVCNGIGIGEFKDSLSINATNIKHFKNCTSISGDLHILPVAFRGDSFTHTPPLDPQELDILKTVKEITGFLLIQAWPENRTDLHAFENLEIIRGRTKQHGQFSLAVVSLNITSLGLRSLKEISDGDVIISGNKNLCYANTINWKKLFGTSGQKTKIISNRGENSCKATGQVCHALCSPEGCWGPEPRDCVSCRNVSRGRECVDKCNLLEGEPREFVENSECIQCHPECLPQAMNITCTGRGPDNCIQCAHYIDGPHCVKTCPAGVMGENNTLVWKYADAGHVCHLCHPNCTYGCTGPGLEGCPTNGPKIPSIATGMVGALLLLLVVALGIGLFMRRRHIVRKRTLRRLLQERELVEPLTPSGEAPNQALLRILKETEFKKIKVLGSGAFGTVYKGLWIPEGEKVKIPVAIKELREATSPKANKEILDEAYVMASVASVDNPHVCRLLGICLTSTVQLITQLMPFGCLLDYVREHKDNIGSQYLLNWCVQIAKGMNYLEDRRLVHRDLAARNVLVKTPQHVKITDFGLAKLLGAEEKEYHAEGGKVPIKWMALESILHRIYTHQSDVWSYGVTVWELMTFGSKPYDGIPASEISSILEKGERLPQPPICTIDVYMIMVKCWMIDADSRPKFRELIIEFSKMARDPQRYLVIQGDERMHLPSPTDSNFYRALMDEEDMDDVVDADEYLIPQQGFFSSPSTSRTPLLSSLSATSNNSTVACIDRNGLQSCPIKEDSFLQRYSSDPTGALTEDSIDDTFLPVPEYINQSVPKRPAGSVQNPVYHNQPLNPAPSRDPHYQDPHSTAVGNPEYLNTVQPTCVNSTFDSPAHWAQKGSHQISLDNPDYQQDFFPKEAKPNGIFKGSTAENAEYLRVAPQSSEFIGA

SMILES | pIC50 (A431 cells) | GI50 [1] | GI50 [2] | GI50 [3]
C=CC(=O)Nc1cccc(N2C(=O)N(Cc3ccccc3)CCc3cnc(NC4COC4)nc32)c1 [Compound 27, N-(3-(7-benzyl-2-(oxetan-3-ylamino)-8-oxo-5,6,7,8-tetrahydro-9H-pyrimido[4,5-d][1,3]diazepin-9-yl)phenyl)acrylamide] | < 5.00 | 611 nM | 606 nM | –
COC/C=C/C(=O)Nc1cccc(N2C(=O)N(c3ccccc3)CCc3cnc(Nc4cn(C)nc4Cl)nc32)c1 [Compound 46, (E)-N-(3-(2-((3-chloro-1-methyl-1H-pyrazol-4-yl)amino)-8-oxo-7-phenyl-5,6,7,8-tetrahydro-9H-pyrimido[4,5-d][1,3]diazepin-9-yl)phenyl)-4-methoxybut-2-enamide] | < 5.00 | 2770 nM | 1130 nM | 5950 nM
CN(C)C/C=C/C(=O)Nc1cccc(N2C(=O)N(c3ccccc3)CCc3cnc(Nc4cn(C)nc4Cl)nc32)c1 [Compound 31, (E)-N-(3-(2-((3-chloro-1-methyl-1H-pyrazol-4-yl)amino)-8-oxo-7-phenyl-5,6,7,8-tetrahydro-9H-pyrimido[4,5-d][1,3]diazepin-9-yl)phenyl)-4-(dimethylamino)but-2-enamide] | < 5.00 | 3950 nM | 2040 nM | 2420 nM
C/C=C/C(=O)Nc1cccc(N2C(=O)N(c3ccccc3)CCc3cnc(Nc4cn(C)nc4Cl)nc32)c1 [Compound 30, (E)-N-(3-(2-((3-chloro-1-methyl-1H-pyrazol-4-yl)amino)-8-oxo-7-phenyl-5,6,7,8-tetrahydro-9H-pyrimido[4,5-d][1,3]diazepin-9-yl)phenyl)but-2-enamide] | < 5.00 | 1960 nM | 993 nM | 3320 nM
Cn1cc(Nc2ncc3c(n2)N(c2cccc(NC(=O)C(F)Cl)c2)C(=O)N(Cc2ccccc2)CC3)c(Cl)n1 (stereo not shown) [Compound 24, N-(3-(7-benzyl-2-((3-chloro-1-methyl-1H-pyrazol-4-yl)amino)-8-oxo-5,6,7,8-tetrahydro-9H-pyrimido[4,5-d][1,3]diazepin-9-yl)phenyl)-2-chloro-2-fluoroacetamide] | < 5.00 | 1090 nM | 1150 nM | 2000 nM
C=CC(=O)Nc1cccc(N2C(=O)N(Cc3ccccc3)CCc3cnc(NC4CCOCC4)nc32)c1 [Compound 25, N-(3-(7-benzyl-8-oxo-2-((tetrahydro-2H-pyran-4-yl)amino)-5,6,7,8-tetrahydro-9H-pyrimido[4,5-d][1,3]diazepin-9-yl)phenyl)acrylamide] | < 5.00 | 492 nM | 388 nM | –
C=CC(=O)Nc1cccc(N2C(=O)N(Cc3ccccc3)CCc3cnc(Nc4cccnc4)nc32)c1 [Compound 12, N-(3-(7-benzyl-8-oxo-2-(pyridin-3-ylamino)-5,6,7,8-tetrahydro-9H-pyrimido[4,5-d][1,3]diazepin-9-yl)phenyl)acrylamide] | < 5.00 | > 10000 nM | > 10000 nM | –
Cn1cc(Nc2ncc3c(n2)N(c2cccc(NC(=O)/C=C/CN4CCOCC4)c2)C(=O)N(c2ccccc2)CC3)c(Cl)n1 [Compound 32, (E)-N-(3-(2-((3-chloro-1-methyl-1H-pyrazol-4-yl)amino)-8-oxo-7-phenyl-5,6,7,8-tetrahydro-9H-pyrimido[4,5-d][1,3]diazepin-9-yl)phenyl)-4-morpholinobut-2-enamide] | < 5.00 | 1360 nM | 1160 nM | 3280 nM
Cn1cc(Nc2ncc3c(n2)N(c2cccc(NC(=O)/C=C/CN4CCCCC4)c2)C(=O)N(c2ccccc2)CC3)c(Cl)n1 [Compound 40, (E)-N-(3-(2-((3-chloro-1-methyl-1H-pyrazol-4-yl)amino)-8-oxo-7-phenyl-5,6,7,8-tetrahydro-9H-pyrimido[4,5-d][1,3]diazepin-9-yl)phenyl)-4-(piperidin-1-yl)but-2-enamide] | < 5.00 | 406 nM | 325 nM | 536 nM
CN(C)C/C=C/C(=O)Nc1cccc(N2C(=O)N(c3ccccc3)CCc3cnc(Nc4cccnc4F)nc32)c1 [Compound 44, (E)-4-(dimethylamino)-N-(3-(2-((2-fluoropyridin-3-yl)amino)-8-oxo-7-phenyl-5,6,7,8-tetrahydro-9H-pyrimido[4,5-d][1,3]diazepin-9-yl)phenyl)but-2-enamide] | < 5.00 | 1140 nM | 936 nM | 1230 nM

Now from value to molecule:

pIC50 (A431 cells) | GI50 [1] | GI50 [2] | GI50 [3] | SMILES
6.65 | 3480 nM | 2790 nM | – | Cc1cc(Nc2ncc3c(n2)N(c2cccc(NC(=O)/C=C/CN(C)C)c2)C(=O)N(c2ccccc2)CC3)ccc1N1CCN(C)CC1 [Compound 34, (E)-4-(dimethylamino)-N-(3-(2-((3-methyl-4-(4-methylpiperazin-1-yl)phenyl)amino)-8-oxo-7-phenyl-5,6,7,8-tetrahydro-9H-pyrimido[4,5-d][1,3]diazepin-9-yl)phenyl)but-2-enamide]
< 5.00 | 320 nM | 225 nM | 895 nM | C=CC(=O)Nc1cccc(N2C(=O)N(C3CC3)CCc3cnc(Nc4cn(C)nc4Cl)nc32)c1 [Compound 20, N-(3-(2-((3-chloro-1-methyl-1H-pyrazol-4-yl)amino)-7-cyclopropyl-8-oxo-5,6,7,8-tetrahydro-9H-pyrimido[4,5-d][1,3]diazepin-9-yl)phenyl)acrylamide]
< 5.00 | 1060 nM | 848 nM | 1030 nM | C=CC(=O)Nc1cccc(N2C(=O)N(Cc3ccccc3)CCc3cnc(NC4CCCC4)nc32)c1 [Compound 13, N-(3-(7-benzyl-2-(cyclopentylamino)-8-oxo-5,6,7,8-tetrahydro-9H-pyrimido[4,5-d][1,3]diazepin-9-yl)phenyl)acrylamide]
5.22 | 959 nM | 348 nM | 174 nM | COc1cc(N2CCN(C)CC2)ccc1Nc1ncc2c(n1)N(c1cccc(NC(=O)/C=C/CN(C)C)c1)C(=O)N(Cc1ccccc1)CC2 [Compound 15, (E)-N-(3-(7-benzyl-2-((2-methoxy-4-(4-methylpiperazin-1-yl)phenyl)amino)-8-oxo-5,6,7,8-tetrahydro-9H-pyrimido[4,5-d][1,3]diazepin-9-yl)phenyl)-4-(dimethylamino)but-2-enamide]
7.70 | 325 nM | 318 nM | – | C=CC(=O)Nc1cccc(N2C(=O)N(c3ccccc3)CCc3cnc(Nc4ccc(C5CCN(C)CC5)cc4)nc32)c1 [Compound 36, N-(3-(2-((4-(1-methylpiperidin-4-yl)phenyl)amino)-8-oxo-7-phenyl-5,6,7,8-tetrahydro-9H-pyrimido[4,5-d][1,3]diazepin-9-yl)phenyl)acrylamide]
6.75 | 933 nM | 911 nM | – | Cc1cc(Nc2ncc3c(n2)N(c2cccc(NC(=O)/C=C/CN(C)C)c2)C(=O)N(Cc2ccccc2)CC3)ccc1N1CCN(C)CC1 [Compound 23, (E)-N-(3-(7-benzyl-2-((3-methyl-4-(4-methylpiperazin-1-yl)phenyl)amino)-8-oxo-5,6,7,8-tetrahydro-9H-pyrimido[4,5-d][1,3]diazepin-9-yl)phenyl)-4-(dimethylamino)but-2-enamide]
5.91 | > 10000 nM | > 10000 nM | – | C=CC(=O)Nc1cccc(Nc2ncc3c(n2)N(C)C(=O)N(c2ccccc2)CC3)c1 [Compound 45, N-(3-((9-methyl-8-oxo-7-phenyl-6,7,8,9-tetrahydro-5H-pyrimido[4,5-d][1,3]diazepin-2-yl)amino)phenyl)acrylamide]
6.43 | 989 nM | 9010 nM | – | CN(C)C/C=C/C(=O)Nc1cccc(N2C(=O)N(c3ccccc3)CCc3cnc(Nc4ccc(C5CCN(C)CC5)cc4)nc32)c1 [Compound 38, (E)-4-(dimethylamino)-N-(3-(2-((4-(1-methylpiperidin-4-yl)phenyl)amino)-8-oxo-7-phenyl-5,6,7,8-tetrahydro-9H-pyrimido[4,5-d][1,3]diazepin-9-yl)phenyl)but-2-enamide]
6.94 | 940 nM | 329 nM | – | CN(C)C/C=C/C(=O)Nc1cccc(N2C(=O)N(Cc3ccccc3)CCc3cnc(Nc4cn(C5CCN(C)CC5)nc4Cl)nc32)c1 [Compound 8, (E)-N-(3-(7-benzyl-2-((3-chloro-1-(1-methylpiperidin-4-yl)-1H-pyrazol-4-yl)amino)-8-oxo-5,6,7,8-tetrahydro-9H-pyrimido[4,5-d][1,3]diazepin-9-yl)phenyl)-4-(dimethylamino)but-2-enamide]
